Results on 26 compounds are retold here after patent US8008305B2, “TAAR1 ligands” (Hoffmann-La Roche Inc., priority 2007, dated 2011).

The structures appear in SMILES notation.

T1 sequence (Q923Y8 whole entry): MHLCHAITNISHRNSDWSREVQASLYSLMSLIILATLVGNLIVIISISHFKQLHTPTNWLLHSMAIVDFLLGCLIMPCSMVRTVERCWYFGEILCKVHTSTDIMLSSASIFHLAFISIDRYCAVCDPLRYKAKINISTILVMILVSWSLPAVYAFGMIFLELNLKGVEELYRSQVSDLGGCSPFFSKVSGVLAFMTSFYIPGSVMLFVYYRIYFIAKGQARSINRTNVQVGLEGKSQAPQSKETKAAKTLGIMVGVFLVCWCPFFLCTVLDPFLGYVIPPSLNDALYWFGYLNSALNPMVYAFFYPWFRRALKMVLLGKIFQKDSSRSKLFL

One test addresses T1, TAAR1 (Mus musculus, UniProt Q923Y8).
T1 construct: expressed in transfected cells; host or cells: HEK293 cells (ATCC # CRL-1573), stably transfected with pIRESneo2 expression plasmid; membranes prepared
The test is described as follows: Radioligand binding ([3H]-rac-2-(1,2,3,4-tetrahydro-1-naphthyl)-2-imidazoline) on membranes of HEK293 cells stably expressing TAAR1. The following applies: TAAR1 binding assay; species not given; read-out: calculated Kd value of the radioligand. The protocol: Construction of TAAR Expression Plasmids and Stably Transfected Cell Lines
For the construction of expression plasmids the coding sequences of human, rat and mouse TAAR 1 were amplified from genomic DNA essentially as described by Lindemann et al.. The Expand High Fidelity PCR System (Roche Diagnostics) was used with 1.5 mM Mg^2+ and purified PCR products were cloned into pCR2.1-TOPO cloning vector (Invitrogen) following the instructions of the manufacturer. PCR products were subcloned into the pIRESneo2 vector (BD Clontech, Palo Alto, Calif.), and expression vectors were sequence verified before introduction in cell lines.
HEK293 cells (ATCC # CRL-1573) were cultured essentially as described Lindemann et al. (2005). For the generation of stably transfected cell lines HEK293 cells were transfected with the pIRESneo2 expression plasmids containing the TAAR coding sequences (described above) with Lipofectamine 2000 (Invitrogen) according to the instructions of the manufacturer, and 24 hrs post transfection the culture medium was supplemented with 1 mg/ml G418 (Sigma, Buchs, Switzerland). After a culture period of about 10 d clones were isolated, expanded and tested for responsiveness to trace amines (all compounds purchased from Sigma) with the cAMP Biotrak Enzyme immunoassay (EIA) System (Amersham) following the non-acetylation EIA procedure provided by the manufacturer.
Membrane Preparation and Radioligand Binding
Cells at confluence were rinsed with ice-cold phosphate buffered saline without Ca^2+ and Mg^2+ containing 10 mM EDTA and pelleted by centrifugation at 1000 rpm for 5 min at 4° C. The pellet was then washed twice with ice-cold phosphate buffered saline and cell pellet was frozen immediately by immersion in liquid nitrogen and stored until use at −80° C. Cell pellet was then suspended in 20 ml HEPES-NaOH (20 mM), pH 7.4 containing 10 mM EDTA, and homogenized with a Polytron (PT 3000, Kinematica) at 10,000 rpm for 10 s. The homogenate was centrifuged at 48,000×g for 30 min at 4° C. and the pellet resuspended in 20 ml HEPES-NaOH (20 mM), pH 7.4 containing 0.1 mM EDTA (buffer A), and homogenized with a Polytron at 10,000 rpm for 10 s. The homogenate was then centrifuged at 48,000×g for 30 min at 4° C. and the pellet resuspended in 20 ml buffer A, and homogenized with a Polytron at 10,000 rpm for 10 s. Protein concentration was determined by the method of Pierce (Rockford, Ill.). The homogenate was then centrifuged at 48,000×g for 10 min at 4° C., resuspended in HEPES-NaOH (20 mM), pH 7.0 including MgCl2 (10 mM) and […] homogenized with a Polytron at 10,000 rpm for 10 s.
Binding assay was performed at 4° C. in a final volume of 1 ml, and with an incubation time of 30 min. The radioligand [^3H]-rac-2-(1,2,3,4-tetrahydro-1-naphthyl)-2-imidazoline was used at a concentration equal to the calculated Kd value of 60 nM to give a bound at around 0.1% of the total added radioligand concentration, and a specific binding which represented approximately 70-80% of the total binding. Non-specific binding was defined as the amount of [^3H]-rac-2-(1,2,3,4-tetrahydro-1-naphthyl)-2-imidazoline bound in the presence of the appropriate unlabelled ligand (10 μM). Competing ligands were tested in a wide range of concentrations (10 pM-30 μM). […] Each experiment was performed in duplicate. All incubations were terminated by rapid filtration through UniFilter-96 plates (Packard Instrument Company) and glass filter GF/C, pre-soaked for at least 2 h in polyethylenimine 0.3%, and using a Filtermate 96 Cell Harvester (Packard Instrument Company). The tubes and filters were then washed 3 times with 1 ml aliquots of cold buffer B. Filters were not dried and soaked in Ultima gold (45 μl/well, Packard Instrument Company) and bound radioactivity was counted by a TopCount Microplate Scintillation Counter (Packard Instrument Company).
Turning to `c1ccc2c(c1)CCCC2C1=NCCN1` (racemic) [[^3H]-rac-2-(1,2,3,4-tetrahydro-1-naphthyl)-2-imidazoline, reference compound], the Kd is 60 nM.

Staying with this test, now noted: mouse TAAR1; radioligand at 60 nM, 4° C., 30 min incubation.
`CN1CCN(c2ccc(C(=O)NCCc3ccccc3)cn2)CC1` [A, 6-(4-methyl-piperazin-1-yl)-N-phenethyl-nicotinamide, reference compound]: the affinity corresponds to a Ki of 0.044 µM.
Consider `CN1CCN(c2ccc(C(=O)NCc3ccccc3)cn2)CC1` [Example 1, N-Benzyl-6-(4-methyl-piperazin-1-yl)-nicotinamide], for which the Ki was found to be 0.071 µM.
Take `CN1CCN(c2ccc(C(=O)NCc3ccc(Cl)cc3)cn2)CC1` [Example 2]: the Ki was found to be 0.013 µM.
Still for that read-out and setting: the figure for `CN1CCN(c2ccc(C(=O)NCCc3ccc(Cl)cc3)cn2)CC1` [Example 6, N-[2-(4-Chloro-phenyl)-ethyl]-6-(4-methyl-piperazin-1-yl)-nicotinamide] is 0.005 µM.
The same measure, in the same setting: the figure for `CN1CCN(c2ccc(C(=O)NCCc3cccc(Cl)c3)cn2)CC1` [Example 7, N-[2-(3-Chloro-phenyl)-ethyl]-6-(4-methyl-piperazin-1-yl)-nicotinamide] is 0.027 µM; for `CN1CCN(c2ccc(C(=O)NCCc3cccc(C(F)(F)F)c3)cn2)CC1` [Example 8, 6-(4-Methyl-piperazin-1-yl)-N-[2-(3-trifluoromethyl-phenyl)-ethyl]-nicotinamide] it is 0.01 µM; for `COc1ccc(CCNC(=O)c2ccc(N3CCN(C)CC3)nc2)cc1` [Example 9, N-[2-(4-Methoxy-phenyl)-ethyl]-6-(4-methyl-piperazin-1-yl)-nicotinamide] it is 0.091 µM.
`COc1cccc(CCNC(=O)c2ccc(N3CCN(C)CC3)nc2)c1` [Example 10, N-[2-(3-Methoxy-phenyl)-ethyl]-6-(4-methyl-piperazin-1-yl)-nicotinamide] displayed a Ki of 0.049 µM.
In the case of `CN1CCN(c2ccc(C(=O)NCCc3ccc4c(c3)OCO4)cn2)CC1` [Example 11, N-(2-Benzo[1,3]dioxol-5-yl-ethyl)-6-(4-methyl-piperazin-1-yl)-nicotinamide], the Ki is 0.043 µM.
Still for that read-out and setting: then `CN1CCN(c2ccc(C(=O)NCCc3ccc(-c4ccccc4)cc3)cn2)CC1` [Example 12, N-(2-Biphenyl-4-yl-ethyl)-6-(4-methyl-piperazin-1-yl)-nicotinamide], with 0.028 µM.
For `CN1CCN(c2ccc(C(=O)NCCc3ccc(Oc4ccccc4)cc3)cn2)CC1` [Example 13, 6-(4-Methyl-piperazin-1-yl)-N-[2-(4-phenoxy-phenyl)-ethyl]-nicotinamide], affinity was put at a Ki of 0.004 µM.
`CN1CCN(c2ccc(C(=O)NCCc3cccc(Oc4ccccc4)c3)cn2)CC1` [Example 14, 6-(4-Methyl-piperazin-1-yl)-N-[2-(3-phenoxy-phenyl)-ethyl]-nicotinamide] registered a Ki of 0.068 µM.
`CN1CCN(c2ccc(C(=O)NCCc3ccc(OCc4ccccc4)cc3)cn2)CC1` [Example 15, N-[2-(4-Benzyloxy-phenyl)-ethyl]-6-(4-methyl-piperazin-1-yl)-nicotinamide]: the Ki was found to be 0.006 µM.
On to `CN1CCN(c2ccc(C(=O)NCCc3cn(C)c4ccccc34)cn2)CC1` [Example 18, N-[2-(1-Methyl-1H-indol-3-yl)-ethyl]-6-(4-methyl-piperazin-1-yl)-nicotinamide], for which the Ki was 0.023 µM.
As for `CN1CCC(Oc2ccc(C(=O)NCCc3ccc(Oc4ccccc4)cc3)cn2)CC1` [Example 24, 6-(1-Methyl-piperidin-4-yloxy)-N-[2-(4-phenoxy-phenyl)-ethyl]-nicotinamide], the Ki was determined as 0.019 µM.
`O=C(NCCc1ccc(Cl)cc1)c1ccc(N2CCNCC2)nc1` [Example 26, N-[2-(4-Chloro-phenyl)-ethyl]-6-piperazin-1-yl-nicotinamide] came in with a Ki of 0.081 µM.
In turn, `O=C(NCCc1ccc(Oc2ccccc2)cc1)c1ccc(N2CCNCC2)nc1` [Example 28, N-[2-(4-Phenoxy-phenyl)-ethyl]-6-piperazin-1-yl-nicotinamide] yielded a Ki of 0.016 µM.
For `O=C(NCCc1cccc(Oc2ccccc2)c1)c1ccc(N2CCNCC2)nc1` [Example 29, N-[2-(3-Phenoxy-phenyl)-ethyl]-6-piperazin-1-yl-nicotinamide], the Ki came to 0.071 µM.
Same read-out and setting: the figure for `O=C(NCCc1ccc(OCc2ccccc2)cc1)c1ccc(N2CCNCC2)nc1` [Example 30, N-[2-(4-Benzyloxy-phenyl)-ethyl]-6-piperazin-1-yl-nicotinamide] is 0.028 µM.
As to `CN1CCN(c2ncc(C(=O)NCCc3ccc(Cl)cc3)cc2Br)CC1` [Example 31, 5-Bromo-N-[2-(4-chloro-phenyl)-ethyl]-6-(4-methyl-piperazin-1-yl)-nicotinamide], the affinity, expressed as Ki, was 0.006 µM.
In turn, `CN1CCN(c2ncc(C(=O)NCCc3ccc(Oc4ccccc4)cc3)cc2Br)CC1` [Example 32, 5-Bromo-6-(4-methyl-piperazin-1-yl)-N-[2-(4-phenoxy-phenyl)-ethyl]-nicotinamide] yielded a Ki of 0.005 µM.
Take `O=C(NCCc1ccc(Cl)cc1)c1cnc(N2CCNCC2)c(Br)c1` [Example 33, 5-Bromo-N-[2-(4-chloro-phenyl)-ethyl]-6-piperazin-1-yl-nicotinamide]: the affinity corresponds to a Ki of 0.019 µM.
Still for that read-out and setting: then `O=C(NCCc1ccc(Oc2ccccc2)cc1)c1cnc(N2CCNCC2)c(Br)c1` [Example 34, 5-Bromo-N-[2-(4-phenoxy-phenyl)-ethyl]-6-piperazin-1-yl-nicotinamide], with 0.009 µM.
Compound `CN1CCN(c2ccc(C(=O)NCCC3CCCCC3)cn2)CC1` [Example 54, N-(2-Cyclohexyl-ethyl)-6-(4-methyl-piperazin-1-yl)-nicotinamide] returned a Ki of 0.012 µM.
`CN1CCN(c2ccc(C(=O)NCC3CCCCC3)cn2)CC1` [Example 55, N-Cyclohexylmethyl-6-(4-methyl-piperazin-1-yl)-nicotinamide] yielded a Ki of 0.062 µM.

For orientation: Kd means the equilibrium constant for the complex coming apart. A word on the Ki: it is the equilibrium dissociation constant of an inhibitor or competing ligand from its target. A lower Ki goes with tighter binding.
